pIC50: −log10 of the molar value.
target: T1, LXRβ (Homo sapiens, UniProt P55055); assay: LXRβ reporter gene assay in HEK293; assay type: cell-based; conditions: read-out: LXRβ antagonistic activity (IC50)
T1 construct: CMX-GAL4N-hLXRβ-LBD; expressed in transfected cells; host or cells: HEK293
T1 sequence (P55055 222-460 limits assumed): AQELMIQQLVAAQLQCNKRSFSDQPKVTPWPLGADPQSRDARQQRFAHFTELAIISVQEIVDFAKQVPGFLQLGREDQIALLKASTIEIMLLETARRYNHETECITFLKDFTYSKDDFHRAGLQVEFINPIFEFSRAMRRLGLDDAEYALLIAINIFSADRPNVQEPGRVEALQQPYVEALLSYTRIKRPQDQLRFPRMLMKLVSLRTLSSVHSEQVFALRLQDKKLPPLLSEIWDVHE

| SMILES | pIC50 |
| --- | --- |
| CCCCn1c(=O)c2ccccc2c2ccccc21 [Compound 7] | 4.82 |
| CCCCn1c(=O)c2ccccc2c2cc(C(C)(C)C)ccc21 [Compound 10] | < 4.70 |
| CCCCn1c(=O)c2ccccc2c2cc(CO)ccc21 [Compound 11] | < 4.70 |
| CCn1c(=O)c2ccccc2c2cc(C(O)(C(F)(F)F)C(F)(F)F)ccc21 [Compound 14] | 5.18 |
| CCCCCCCCCn1c(=O)c2ccccc2c2cc(C(O)(C(F)(F)F)C(F)(F)F)ccc21 [Compound 17] | < 4.70 |
| CCCCn1c(=O)c2ccccc2c2c(OC)c(C(O)(C(F)(F)F)C(F)(F)F)ccc21 [Compound 18] | < 4.70 |
| CCCCn1c(=O)c2ccccc2c2cc(C(O)(C(F)(F)F)C(F)(F)F)c(OC)cc21 [Compound 19] | 5.04 |
| CCCCn1c(=O)c2ccccc2c2cc(C(O)(C(F)(F)F)C(F)(F)F)cc(OC)c21 [Compound 20] | 5.26 |
| CCCCn1c(=O)c2c(OC)cccc2c2cc(C(O)(C(F)(F)F)C(F)(F)F)ccc21 [Compound 21] | 4.92 |
| CCCCn1c(=O)c2cc(OC)ccc2c2cc(C(O)(C(F)(F)F)C(F)(F)F)ccc21 [Compound 22] | 4.96 |
| CCCCn1c(=O)c2ccc(OC)cc2c2cc(C(O)(C(F)(F)F)C(F)(F)F)ccc21 [Compound 23] | 5.62 |
| CCCCn1c(=O)c2cccc(OC)c2c2cc(C(O)(C(F)(F)F)C(F)(F)F)ccc21 [Compound 24] | 5.37 |
| CCCCn1c(=O)c2ccccc2c2cc(C(O)(C(F)(F)F)C(F)(F)F)c(OC)c(OC)c21 [Compound 25] | 5.02 |
| CCCCn1c(=O)c2ccccc2c2cc(C(O)(C(F)(F)F)C(F)(F)F)c3c(c21)OCO3 [Compound 26] | < 4.70 |

target: T2, RORβ (Homo sapiens, UniProt Q92753); assay: not given; conditions: reporter gene assay, HEK293; read-out: RORβ inverse agonistic activity (IC50); cited from earlier work
T2 construct: expressed in transfected cells; host or cells: HEK293
T2 sequence (Q92753 1-459 isoform Q92753-1): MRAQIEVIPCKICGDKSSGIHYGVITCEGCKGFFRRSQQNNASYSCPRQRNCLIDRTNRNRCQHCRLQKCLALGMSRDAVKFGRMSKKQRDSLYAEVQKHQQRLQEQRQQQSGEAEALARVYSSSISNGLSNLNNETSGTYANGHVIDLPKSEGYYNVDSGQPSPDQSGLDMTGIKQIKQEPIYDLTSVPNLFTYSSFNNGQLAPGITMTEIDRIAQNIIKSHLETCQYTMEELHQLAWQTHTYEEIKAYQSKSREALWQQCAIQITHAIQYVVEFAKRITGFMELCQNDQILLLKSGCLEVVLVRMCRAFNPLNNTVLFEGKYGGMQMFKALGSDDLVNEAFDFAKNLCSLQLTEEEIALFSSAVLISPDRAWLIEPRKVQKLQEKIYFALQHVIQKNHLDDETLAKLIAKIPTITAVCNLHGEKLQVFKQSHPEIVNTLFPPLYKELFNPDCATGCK

| SMILES | pIC50 |
| --- | --- |
| CCCCn1c(=O)c2ccccc2c2ccccc21 [Compound 7] | 4.89 |
| CCCCn1c(=O)c2ccccc2c2cc(C(C)(C)C)ccc21 [Compound 10] | 4.89 |
| CCCCn1c(=O)c2ccccc2c2cc(CO)ccc21 [Compound 11] | < 4.70 |
| CCn1c(=O)c2ccccc2c2cc(C(O)(C(F)(F)F)C(F)(F)F)ccc21 [Compound 14] | < 4.70 |
| CCCCCCCCCn1c(=O)c2ccccc2c2cc(C(O)(C(F)(F)F)C(F)(F)F)ccc21 [Compound 17] | < 4.70 |
| CCCCn1c(=O)c2ccccc2c2c(OC)c(C(O)(C(F)(F)F)C(F)(F)F)ccc21 [Compound 18] | < 4.70 |
| CCCCn1c(=O)c2ccccc2c2cc(C(O)(C(F)(F)F)C(F)(F)F)c(OC)cc21 [Compound 19] | 5.09 |
| CCCCn1c(=O)c2ccccc2c2cc(C(O)(C(F)(F)F)C(F)(F)F)cc(OC)c21 [Compound 20] | 5.16 |
| CCCCn1c(=O)c2c(OC)cccc2c2cc(C(O)(C(F)(F)F)C(F)(F)F)ccc21 [Compound 21] | 4.82 |
| CCCCn1c(=O)c2cc(OC)ccc2c2cc(C(O)(C(F)(F)F)C(F)(F)F)ccc21 [Compound 22] | 4.82 |
| CCCCn1c(=O)c2ccc(OC)cc2c2cc(C(O)(C(F)(F)F)C(F)(F)F)ccc21 [Compound 23] | 5.14 |
| CCCCn1c(=O)c2cccc(OC)c2c2cc(C(O)(C(F)(F)F)C(F)(F)F)ccc21 [Compound 24] | < 4.70 |
| CCCCn1c(=O)c2ccccc2c2cc(C(O)(C(F)(F)F)C(F)(F)F)c(OC)c(OC)c21 [Compound 25] | < 5.00 |
| CCCCn1c(=O)c2ccccc2c2cc(C(O)(C(F)(F)F)C(F)(F)F)c3c(c21)OCO3 [Compound 26] | < 4.70 |

target: T3, RORγ (Homo sapiens, UniProt P51449); assay: not given; conditions: reporter gene assay, HEK293; read-out: RORγ inverse agonistic activity (IC50); cited from earlier work
T3 construct: expressed in transfected cells; host or cells: HEK293
T3 sequence (P51449 1-518): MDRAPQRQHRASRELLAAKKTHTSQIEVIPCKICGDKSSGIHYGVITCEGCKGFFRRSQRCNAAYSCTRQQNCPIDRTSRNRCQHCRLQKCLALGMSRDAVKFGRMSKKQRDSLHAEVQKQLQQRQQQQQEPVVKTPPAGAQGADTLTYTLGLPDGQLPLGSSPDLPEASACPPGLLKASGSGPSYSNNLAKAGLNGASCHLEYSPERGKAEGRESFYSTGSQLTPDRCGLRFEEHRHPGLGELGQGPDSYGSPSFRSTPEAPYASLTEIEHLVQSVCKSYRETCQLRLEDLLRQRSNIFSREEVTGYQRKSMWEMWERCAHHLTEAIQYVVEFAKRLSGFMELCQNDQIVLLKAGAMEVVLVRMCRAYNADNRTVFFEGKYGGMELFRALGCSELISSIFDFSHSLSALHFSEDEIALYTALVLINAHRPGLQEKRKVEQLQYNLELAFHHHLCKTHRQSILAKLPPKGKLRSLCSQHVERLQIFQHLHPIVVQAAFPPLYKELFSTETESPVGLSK

| SMILES | pIC50 |
| --- | --- |
| CCCCn1c(=O)c2ccccc2c2ccccc21 [Compound 7] | 4.82 |
| CCCCn1c(=O)c2ccccc2c2cc(C(C)(C)C)ccc21 [Compound 10] | 5.00 |
| CCCCn1c(=O)c2ccccc2c2cc(CO)ccc21 [Compound 11] | < 4.70 |
| CCn1c(=O)c2ccccc2c2cc(C(O)(C(F)(F)F)C(F)(F)F)ccc21 [Compound 14] | < 4.70 |
| CCCCCCCCCn1c(=O)c2ccccc2c2cc(C(O)(C(F)(F)F)C(F)(F)F)ccc21 [Compound 17] | < 4.70 |
| CCCCn1c(=O)c2ccccc2c2c(OC)c(C(O)(C(F)(F)F)C(F)(F)F)ccc21 [Compound 18] | < 4.70 |
| CCCCn1c(=O)c2ccccc2c2cc(C(O)(C(F)(F)F)C(F)(F)F)c(OC)cc21 [Compound 19] | 5.12 |
| CCCCn1c(=O)c2ccccc2c2cc(C(O)(C(F)(F)F)C(F)(F)F)cc(OC)c21 [Compound 20] | 5.27 |
| CCCCn1c(=O)c2c(OC)cccc2c2cc(C(O)(C(F)(F)F)C(F)(F)F)ccc21 [Compound 21] | 4.89 |
| CCCCn1c(=O)c2cc(OC)ccc2c2cc(C(O)(C(F)(F)F)C(F)(F)F)ccc21 [Compound 22] | 4.89 |
| CCCCn1c(=O)c2ccc(OC)cc2c2cc(C(O)(C(F)(F)F)C(F)(F)F)ccc21 [Compound 23] | 5.57 |
| CCCCn1c(=O)c2cccc(OC)c2c2cc(C(O)(C(F)(F)F)C(F)(F)F)ccc21 [Compound 24] | 5.07 |
| CCCCn1c(=O)c2ccccc2c2cc(C(O)(C(F)(F)F)C(F)(F)F)c(OC)c(OC)c21 [Compound 25] | 5.07 |
| CCCCn1c(=O)c2ccccc2c2cc(C(O)(C(F)(F)F)C(F)(F)F)c3c(c21)OCO3 [Compound 26] | < 4.70 |

target: T4, PR (Homo sapiens, UniProt P06401); assay: not given; conditions: alkaline phosphatase, T47D cells, progesterone 1 nM; read-out: PR antagonistic activity (IC50); cited from earlier work
T4 sequence (P06401 1-933): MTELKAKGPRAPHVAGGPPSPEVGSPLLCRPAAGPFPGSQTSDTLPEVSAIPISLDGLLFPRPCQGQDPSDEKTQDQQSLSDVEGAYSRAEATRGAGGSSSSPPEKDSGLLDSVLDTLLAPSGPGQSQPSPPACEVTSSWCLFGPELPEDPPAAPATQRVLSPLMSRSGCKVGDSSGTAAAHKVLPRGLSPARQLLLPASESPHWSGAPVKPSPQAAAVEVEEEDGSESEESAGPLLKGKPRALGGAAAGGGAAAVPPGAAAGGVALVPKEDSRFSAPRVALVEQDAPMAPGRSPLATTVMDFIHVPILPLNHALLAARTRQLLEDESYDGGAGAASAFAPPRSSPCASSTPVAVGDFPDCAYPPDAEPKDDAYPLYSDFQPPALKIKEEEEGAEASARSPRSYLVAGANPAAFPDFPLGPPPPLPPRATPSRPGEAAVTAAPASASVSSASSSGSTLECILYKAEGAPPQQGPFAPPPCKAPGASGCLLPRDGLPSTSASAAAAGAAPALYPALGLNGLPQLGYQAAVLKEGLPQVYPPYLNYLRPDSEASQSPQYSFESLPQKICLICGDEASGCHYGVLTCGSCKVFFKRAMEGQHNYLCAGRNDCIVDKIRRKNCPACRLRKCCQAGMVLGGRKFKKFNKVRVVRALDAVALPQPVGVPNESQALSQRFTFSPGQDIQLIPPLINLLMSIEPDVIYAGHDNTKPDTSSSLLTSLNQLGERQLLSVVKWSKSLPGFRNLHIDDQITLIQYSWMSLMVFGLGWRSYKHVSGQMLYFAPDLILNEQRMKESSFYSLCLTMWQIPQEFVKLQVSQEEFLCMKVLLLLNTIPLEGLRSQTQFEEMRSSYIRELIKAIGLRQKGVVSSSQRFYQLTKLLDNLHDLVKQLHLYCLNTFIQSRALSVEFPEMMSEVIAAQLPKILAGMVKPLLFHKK

| SMILES | pIC50 |
| --- | --- |
| CCCCn1c(=O)c2ccccc2c2cc(C(O)(C(F)(F)F)C(F)(F)F)c(OC)c(OC)c21 [Compound 25] | 6.29 |
| CCCCn1c(=O)c2ccccc2c2cc(C(O)(C(F)(F)F)C(F)(F)F)c3c(c21)OCO3 [Compound 26] | 6.64 |

same assay, conditions: cited from earlier work

| SMILES | enhanced PR activity compared with unsubstituted analog 12 |
| --- | --- |
| CCCCn1c(=O)c2ccccc2c2cc(C(O)(C(F)(F)F)C(F)(F)F)c(OC)cc21 [Compound 19] | more than 3 fold |
| CCCCn1c(=O)c2ccccc2c2cc(C(O)(C(F)(F)F)C(F)(F)F)cc(OC)c21 [Compound 20] | > 2 fold |
